Patent publication US20070161542A1, “Ptb1b photoprobes” (priority 2003, published 2007)

Biological target: T1, PTP1B in HEPG2 whole cells (Homo sapiens, UniProt P18031)
T1 construct: Labeling of Endogenous PTP1B in HEPG2 Cell Lysate; endogenous in cells; host or cells: HepG2 (human hepatoma, ATCC)
T1 sequence (P18031 1-435): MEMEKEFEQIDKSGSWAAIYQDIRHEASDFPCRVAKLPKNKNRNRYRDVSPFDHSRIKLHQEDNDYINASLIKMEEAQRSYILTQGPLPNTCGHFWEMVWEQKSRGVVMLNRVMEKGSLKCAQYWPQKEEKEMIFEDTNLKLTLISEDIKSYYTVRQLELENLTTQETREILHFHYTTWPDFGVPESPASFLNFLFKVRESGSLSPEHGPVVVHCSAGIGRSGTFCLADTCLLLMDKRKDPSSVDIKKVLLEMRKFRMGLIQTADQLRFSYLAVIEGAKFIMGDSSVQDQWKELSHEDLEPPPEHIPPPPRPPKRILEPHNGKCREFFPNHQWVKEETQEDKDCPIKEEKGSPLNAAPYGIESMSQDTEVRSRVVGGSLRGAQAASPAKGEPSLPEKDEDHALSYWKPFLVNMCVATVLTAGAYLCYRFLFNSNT
Test: Labeling of endogenous PTP1B in HEPG2 whole cells
Assay type: cell-based
Conditions: mass balance on total counts, 5 nM probe
Experimental: Human hepatoma cells (HepG2) were obtained from American Type Culture Collection and maintained in regular MEM containing 10% FBS and 1% antibiotics at 37° C., 5% CO2. For photoprobe experiments, cells (2×10^4) were grown until 80% confluence in 6-well plates and serum starved for 14 hours by incubating in MEM with 1% antibiotics without FBS.
HEPG2 cells were grown to ˜80% confluency in 6-well dishes. Media was removed and washed twice with Hanks-Hepes buffer (15 mM Hepes). For HepG2 lysate studies, the cells were lysed on ice for 15 minutes using 1 ml lysate buffer (50 mM Tris pH 7.4, 150 mM NaCl, 1% Triton X-100, 5 mM EDTA, 5 mM DTT, Complete™ protease inhibitor tablet). […] The protein concentration of the lysates was determined by the method of Lowry (detergent compatible).
PTP1B was immunoprecipitated from HepG2 cell lysates (1 ml of 1 mg/ml) using 3.5 ug of anti-PTP1B antibody (BDT) overnight at 4° C. with rotation. […] For autoradiogram detection of radioactivity, the gels were dried and exposed to BioMax MS film with an intensifying screen at −80° C. Protein bands were quantified using a scanning densitometer (Bio-Rad).
The compound of Example 1 at various concentrations was incubated with HEPG2 whole cells for 30 min and was irradiated on ice for 15 min. The cells were then lysed, and labeled PTP1B was measured after immunoprecipitation. […]

cell permeability (share of probe associated with the cell): around 10%
Compound: NC(=O)[C@H](Cc1ccc(C(F)(F)P(=O)(O)O)c(Br)c1)NC(=O)[C@H](Cc1ccc(C(F)(F)P(=O)(O)O)c(Br)c1)NC(=O)c1cc(I)cc(C2(C(F)(F)F)N=N2)c1 [Example 1, Tetraamnionium 3-bromo-4-(difluoro(phosphonato)methyl)-N-(3-iodo-5-(3-(trifluoromethyl)-3H-diaziren-3-yl)benzoyl)-L-phenylalanyl-3-bromo-4-(difluoro(phosphonato)methyl)-L-phenylalaninamide]
